Experimental findings from patent US20230069804A1, “METHODS AND COMPOSITIONS FOR MODULATING SPLICING” (SkyHawk Therapeutics, Inc., priority 2019, published 2023) are described below.

The term Papp A→B denotes how fast a substance crosses the layer from the apical side. A low value points to slow passage. The Papp B→A is the apparent permeability from the basolateral to the apical side of a cell layer.

The structures appear in SMILES notation. Like-named read-outs stand apart in the source and are kept apart here.

One data set relates to MDR1. Briefly: MDCK-MDR1 permeability assay (BBB penetration potential). The class given is in vitro ADME. The conditions noted are these: dog; for Papp A→B at 120 min, 5 μM / Papp B→A at 120 min, 5 μM: MDCK-MDR1, pH 7.4. The protocol: (§1) Each determination is performed in duplicate. […] Analytical conditions are outlined below.
(§2) Papp=(dCr/dt)×Vr/(A×CA) (1)

In data set [1] the test system is MDR1-MDCK cell monolayers. Described as above. The class given is in vitro ADME. As to conditions: 5 μM, 120 minutes; for MDCK MDRP1 Efflux Ratio: Papp (B-to-A)/Papp (A-to-B), separated enantiomers, told apart by chiral retention time; for MDCK-MDR1: % Recov A-B / MDCK-MDR1: % Recov B-A: pH 7.4. The protocol: as §1, §2
Where [2] appears, read: MDCK-MDR1, pH 7.4, Papp (B-to-A)/Papp (A-to-B), 5 μM, 120 minutes, separated enantiomers, told apart by chiral retention time, read-out: MDCK MDRP1 Efflux Ratio.
[3] abbreviates: MDCK-MDR1, pH 7.4, Papp (B-to-A)/Papp (A-to-B), read-out: MDCK-MDR1: Efflux.

Consider `CN(c1nnc(-c2ccc(-c3cc(=O)n(C)cn3)cc2O)s1)[C@@H]1C[C@H]2CC[C@H](N2)[C@@H]1F` (racemic) [8A/8B, 6-[4-(5-{[(1S,2S,3R)-2-fluoro-8-azabicyclo[3.2.1]octan-3-yl](methyl)amino}-1,3,4-thiadiazol-2-yl)-3-hydroxyphenyl]-3-methyl-3,4-dihydropyrimidin-4-one and 6-[4-(5-{[(2R,3S,5S)-2-fluoro-8-azabicyclo[3.2.1]octan-3-yl](methyl)amino}-1,3,4-thiadiazol-2-yl)-3-hydroxyphenyl]-3-methyl-3,4-dihydropyrimidin-4-one], for which, in the data set on MDR1 (setting [2]), the efflux ratio at 120 min, 5 μM came to 21. Moreover, the “MDCK MDRP1 Efflux Ratio” value in data set [1] was 31.

Regarding `CN(c1nnc(-c2cc(F)c(-c3cn[nH]c3)cc2O)s1)[C@H]1C[C@@H]2CC[C@H]([C@H]1F)N2C` (single isomer, unassigned) [Compound E-24A], the efflux ratio at 120 min, 5 μM with MDR1 (setting [3]) amounted to 6. Moreover, in the data set with MDR1 (5 μM, 120 minutes), the Papp A→B at 120 min, 5 μM was 5.07 ×10⁻⁶ cm/s and the Papp B→A at 120 min, 5 μM was found to be 30.8 ×10⁻⁶ cm/s. Moreover, in data set [1], the “MDCK-MDR1: % Recov A-B” value worked out at 57% and the “MDCK-MDR1: % Recov B-A” value was 74%.

Consider `CN(c1nnc(-c2cc(F)c(-c3cn[nH]c3)cc2O)s1)[C@@H]1C[C@H]2CC[C@H](N2)[C@@H]1F` (single isomer, unassigned) [Compound E-6A], for which, in the data set on MDR1 (setting [3]), the efflux ratio at 120 min, 5 μM is 15. Further, in the data set on MDR1 (5 μM, 120 minutes), the apparent permeability from apical to basolateral (Papp A→B) at 120 min, 5 μM is 2.33 ×10⁻⁶ cm/s and the Papp B→A at 120 min, 5 μM came out at 35.2 ×10⁻⁶ cm/s. Also, in data set [1], the “MDCK-MDR1: % Recov A-B” value turned out to be 59% and the “MDCK-MDR1: % Recov B-A” value came out at 80%.

As to `CN(c1nnc(-c2cc(F)c(-c3cn[nH]c3)cc2O)s1)[C@@H]1C[C@H]2CC[C@@H]([C@@H]1F)N2C` (single isomer, unassigned) [Compound E-24B], in the data set with MDR1 (setting [3]), the efflux ratio at 120 min, 5 μM was found to be 7. In the data set on MDR1 (5 μM, 120 minutes), this molecule yielded a Papp A→B at 120 min, 5 μM of 4.16 ×10⁻⁶ cm/s and a Papp B→A at 120 min, 5 μM of 29.4 ×10⁻⁶ cm/s. In data set [1], the “MDCK-MDR1: % Recov A-B” value came to 59% and the “MDCK-MDR1: % Recov B-A” value came out at 82%.

On to `CN(c1nnc(-c2ccc(-c3cnn(C)c3)cc2O)s1)[C@H]1C[C@@H]2CC[C@H]([C@H]1F)N2C` (racemic) [21A/21B, 2-(5-{[(1S,2S,3R,5R)-2-fluoro-8-methyl-8-azabicyclo[3.2.1]octan-3-yl](methyl)amino}-1,3,4-thiadiazol-2-yl)-5-(1-methyl-1H-pyrazol-4-yl)phenol and 2-(5-{[(1R,2R,3S,5S)-2-fluoro-8-methyl-8-azabicyclo[3.2.1]octan-3-yl](methyl)amino}-1,3,4-thiadiazol-2-yl)-5-(1-methyl-1H-pyrazol-4-yl)phenol], for which the efflux ratio at 120 min, 5 μM in the data set on MDR1 (setting [2]) was determined as 3. Besides, the “MDCK MDRP1 Efflux Ratio” value in data set [1] is 4.

On to `CN(c1nnc(-c2ccc(-c3ccn(CF)c(=O)c3)cc2O)s1)[C@@H]1C[C@H]2CC[C@H](N2)[C@@H]1F` (single isomer, unassigned) [Compound E-15A], for which the efflux ratio at 120 min, 5 μM in the data set with MDR1 (setting [3]) amounted to 40. In the data set on MDR1 (5 μM, 120 minutes), the Papp A→B at 120 min, 5 μM is 1.39 ×10⁻⁶ cm/s and the Papp B→A at 120 min, 5 μM worked out at 55.6 ×10⁻⁶ cm/s. In addition, in data set [1], the “MDCK-MDR1: % Recov A-B” value is recorded as 82% and the “MDCK-MDR1: % Recov B-A” value came to 96%.

On to `CN(c1nnc(-c2cc(F)c(-c3cn[nH]c3)cc2O)s1)[C@H]1C[C@@H]2CC[C@H]([C@H]1F)N2C` (racemic) [24A/24B, 4-fluoro-2-(5-{[(1S,2S,3R,5R)-2-fluoro-8-methyl-8-azabicyclo[3.2.1]octan-3-yl](methyl)amino}-1,3,4-thiadiazol-2-yl)-5-(1H-pyrazol-4-yl)phenol and 4-fluoro-2-(5-{[(1R,2R,3S,5S)-2-fluoro-8-methyl-8-azabicyclo[3.2.1]octan-3-yl](methyl)amino}-1,3,4-thiadiazol-2-yl)-5-(1H-pyrazol-4-yl)phenol], for which the efflux ratio at 120 min, 5 μM in the data set on MDR1 (setting [2]) worked out at 6. In addition, the “MDCK MDRP1 Efflux Ratio” value in data set [1] turned out to be 7.

As for `CN(c1nnc(-c2ccc(-c3cnn(CF)c3)cc2O)s1)[C@H]1C[C@@H]2CC[C@@H](N2)[C@H]1F` (single isomer, unassigned) [Compound E-10A], in the data set on MDR1 (setting [3]), the efflux ratio at 120 min, 5 μM was 6. In the data set on MDR1 (5 μM, 120 minutes), this molecule had an apparent permeability from apical to basolateral (Papp A→B) at 120 min, 5 μM of 8.6 ×10⁻⁶ cm/s and an apparent permeability from basolateral to apical (Papp B→A) at 120 min, 5 μM of 50.8 ×10⁻⁶ cm/s. In data set [1], the “MDCK-MDR1: % Recov A-B” value stood at 72% and the “MDCK-MDR1: % Recov B-A” value is 80%.
